Measurements reported in PMC11713868, “Cryo-EM Structure of Recombinantly Expressed hUGDH Unveils a Hidden, Alternative Allosteric Inhibitor” (Biochemistry, 2024).
Each block holds one molecule with its values, some of them ahead of it.

Assays:
[1] = biological target: T1, Human UDP-glucose dehydrogenase (hUGDH) (Homo sapiens, UniProt O60701); experiment: NADH absorbance ([…] nm) steady-state kinetics, global fit of UDP-Glc saturation curves; format: biochemical; design: gene UGDH; recombinant unliganded hUGDH, His tag removed
T1 sequence (O60701 1-494): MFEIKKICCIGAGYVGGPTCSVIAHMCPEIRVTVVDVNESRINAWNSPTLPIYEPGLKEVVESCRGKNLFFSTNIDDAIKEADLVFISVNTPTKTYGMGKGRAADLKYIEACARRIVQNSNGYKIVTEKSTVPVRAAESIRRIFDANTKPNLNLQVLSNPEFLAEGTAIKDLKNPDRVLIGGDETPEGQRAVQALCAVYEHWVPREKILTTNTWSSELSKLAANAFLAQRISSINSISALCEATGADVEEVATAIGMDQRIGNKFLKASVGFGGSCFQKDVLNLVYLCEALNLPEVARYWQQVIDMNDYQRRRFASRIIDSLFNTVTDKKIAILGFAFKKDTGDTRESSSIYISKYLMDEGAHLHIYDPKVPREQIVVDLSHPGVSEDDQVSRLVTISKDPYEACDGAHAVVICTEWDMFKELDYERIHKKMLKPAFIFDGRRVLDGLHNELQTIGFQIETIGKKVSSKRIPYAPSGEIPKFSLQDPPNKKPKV

[2] = biological target: T1, Human UDP-glucose dehydrogenase (hUGDH); experiment: cryo-EM structure ([…] Å) of copurified complex, HPLC/NMR/MS ligand identification; Ki from global fit of competitive inhibition kinetics; format: biochemical; design: gene UGDH; recombinant hUGDH, N-terminal His tag removed by TEV; hexamer
purified protein = substrate: NC(=O)c1ccc[n+]([C@@H]2O[C@H](COP(=O)([O-])OP(=O)(O)OC[C@H]3O[C@@H](n4cnc5c(N)ncnc54)[C@H](O)[C@@H]3O)[C@@H](O)[C@H]2O)c1; experiment: purified protein; format: biochemical, Homo sapiens; conditions: NAD^+ binding (NB) domain; negative cooperativity; varied: cofactor
[3] = biological target: the molecule itself; experiment: cryo-EM structure; hUGDH:UX4O (copurified UDP-4-keto-xylose bound), 1 mg/mL, 20 mM Hepes pH 7.5, 100 mM NaCl, 1 mM DTT; C2 reconstruction at 2.38 Å, E-omega state

Ki [1]: 440 ± 20 nM
Molecule: O=c1ccn([C@@H]2O[C@H](COP(=O)(O)OP(=O)(O)O[C@H]3OC[C@@H](O)[C@H](O)[C@H]3O)[C@@H](O)[C@H]2O)c(=O)[nH]1 [UDP-Xyl, UDP-xylose]

Ki [2]: 750 ± 60 nM
Molecule: O=C1CO[C@H](OP(=O)(O)OP(=O)(O)OC[C@H]2O[C@@H](n3ccc(=O)[nH]c3=O)[C@H](O)[C@@H]2O)[C@H](O)[C@H]1O [UX4O, UDP-4-keto-xylose]

B1: Human UDP-glucose dehydrogenase (hUGDH) (enzyme)
chain: T1 sequence (O60701 1-494)
notes: UDP-glucose dehydrogenase, human, UniProtKB O60701; also called hUGDH:UX4O (the same protein with copurified UDP-4-keto-xylose); unliganded hUGDH; source: E. coli, purified (TALON column, TEV protease digestion, Superdex 200); not shown: histidine tag, N-terminal, cleaved
Km (purified protein): 83.4 ± 10.4 µM
stoichiometry N [3]: 6
